Values quoted from earlier work in US20260258420A1, “COMPOSITIONS AND METHODS FOR THE TREATMENT OF HUMAN PAPILLOMAVIRUS-DRIVEN CANCERS” (priority 2023, published 2026).

How the values were obtained:
[1] = HNSCC patients who received 100 mg/m^2; read-out: plasma Cmax; cited from earlier work
UPCI-SCC-090 = details: cited from earlier work
ME180 = details: cited from earlier work
CaSki = details: cited from earlier work
SiHa = details: cited from earlier work
Vu147T = details: cited from earlier work
UDSCC2 = details: cited from earlier work

Question: What does the source list for `N.N.[Cl][Pt][Cl]` [cisplatin]?
Answer: Cmax [1]: 11 µM; IC50 (UPCI-SCC-090): 11.1 µM; IC50 (ME180): 12 µM; IC50 (CaSki): 15 µM; IC50 (SiHa): 28 µM; IC50 (Vu147T): 11.2 µM; IC50 (UDSCC2): 18 µM
